22 compounds from ChEMBL document CHEMBL1268924, “Design, solid-phase synthesis, and biological evaluation of novel 1,5-diarylpyrrole-3-carboxamides as carbonic anhydrase IX inhibitors” (Bioorg Med Chem, 2010) can be followed below.

Each structure is given as a SMILES string.

The target of one experiment is Carbonic anhydrase 1 (Homo sapiens, UniProt P00915). As to the kind of experiment: Inhibition of human carbonic anhydrase 1 by stopped flow CO2 hydration assay.
Chain of Carbonic anhydrase 1 (P00915 whole entry): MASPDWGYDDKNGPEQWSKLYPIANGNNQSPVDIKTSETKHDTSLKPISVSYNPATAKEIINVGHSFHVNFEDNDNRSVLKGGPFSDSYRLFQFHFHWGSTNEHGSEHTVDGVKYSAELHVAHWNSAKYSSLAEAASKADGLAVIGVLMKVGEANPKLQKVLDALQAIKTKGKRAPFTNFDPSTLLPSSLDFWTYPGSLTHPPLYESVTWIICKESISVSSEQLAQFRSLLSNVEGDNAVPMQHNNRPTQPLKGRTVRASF
A word on the Ki: it is the dissociation constant of the complex between target and ligand, obtained from inhibition or displacement. Low readings indicate higher affinity, high ones lower affinity. As to `Cc1c(C(=O)N2CCN(C)CC2)cc(-c2ccc3ccccc3c2)n1-c1ccc(S(N)(=O)=O)cc1`, the Ki was > 10000 nM.

A further experiment has as its target Carbonic anhydrase 9 (Homo sapiens, UniProt Q16790). As to the kind of experiment: Inhibition of human carbonic anhydrase 9 by stopped flow CO2 hydration assay.
Regarding `Cc1c(C(=O)NCCN2CCCCC2)cc(-c2ccc(-c3ccccc3)cc2)n1-c1ccc(S(N)(=O)=O)cc1`, the Ki stood at 167 nM. Compound `Cc1c(C(=O)NCCCN(C)C)cc(-c2ccccc2)n1-c1ccc(S(N)(=O)=O)cc1` showed a Ki of 131 nM. The Ki values of the last two compounds are within 1.5-fold of each other.

The compound `Cc1c(C(=O)N2CCN(C)CC2)cc(-c2ccc(-c3ccccc3)cc2)n1-c1ccc(S(N)(=O)=O)cc1` registered a Ki of 68 nM. `Cc1c(C(=O)NCCN2CCOCC2)cc(-c2ccc3ccccc3c2)n1-c1ccc(S(N)(=O)=O)cc1` showed a Ki of 22 nM. In turn, `Cc1c(C(=O)NCCN2CCCCC2)cc(-c2ccccc2)n1-c1ccc(S(N)(=O)=O)cc1` yielded a Ki of 89 nM. In turn, `Cc1c(C(=O)NCCN2CCOCC2)cc(-c2ccc(-c3ccccc3)cc2)n1-c1ccc(S(N)(=O)=O)cc1` displayed a Ki of 187 nM. In turn, `Cc1c(C(=O)NCCN2CCN(C)CC2)cc(-c2ccc(-c3ccccc3)cc2)n1-c1ccc(S(N)(=O)=O)cc1` showed a Ki of 207 nM. The compound `Cc1c(C(=O)NCCCN2CCN(C)CC2)cc(-c2ccc3ccccc3c2)n1-c1ccc(S(N)(=O)=O)cc1` returned a Ki of 147 nM. As for `Cc1c(C(=O)NCCN2CCCC2)cc(-c2ccc3ccccc3c2)n1-c1ccc(S(N)(=O)=O)cc1`, the Ki came to 30 nM. `Cc1c(C(=O)NCCCN2CCOCC2)cc(-c2ccc(-c3ccccc3)cc2)n1-c1ccc(S(N)(=O)=O)cc1` had a Ki of 101 nM. For the compound `Cc1c(C(=O)NCCN2CCCC2)cc(-c2ccc(-c3ccccc3)cc2)n1-c1ccc(S(N)(=O)=O)cc1`, the Ki was 153 nM.

`Cc1c(C(=O)NCCCN(C)C)cc(-c2ccc3ccccc3c2)n1-c1ccc(S(N)(=O)=O)cc1` displayed a Ki of 11 nM. For the compound `Cc1c(C(=O)NCCN(C)C)cc(-c2ccccc2)n1-c1ccc(S(N)(=O)=O)cc1`, the Ki was 242 nM. `Cc1c(C(=O)NCCCN2CCOCC2)cc(-c2ccc3ccccc3c2)n1-c1ccc(S(N)(=O)=O)cc1` displayed a Ki of 137 nM. The compound `Cc1c(C(=O)N2CCN(C)CC2)cc(-c2ccccc2)n1-c1ccc(S(N)(=O)=O)cc1` returned a Ki of 135 nM.

The compound `Cc1c(C(=O)NCCN2CCCCC2)cc(-c2ccc3ccccc3c2)n1-c1ccc(S(N)(=O)=O)cc1` gave a Ki of 125 nM.

In turn, `Cc1c(C(=O)NCCN2CCOCC2)cc(-c2ccccc2)n1-c1ccc(S(N)(=O)=O)cc1` displayed a Ki of 200 nM. As to `Cc1c(C(=O)NCCCN2CCN(C)CC2)cc(-c2ccc(-c3ccccc3)cc2)n1-c1ccc(S(N)(=O)=O)cc1`, the affinity, expressed as Ki, was 198 nM. Regarding `Cc1c(C(=O)NCCCN(C)C)cc(-c2ccc(-c3ccccc3)cc2)n1-c1ccc(S(N)(=O)=O)cc1`, the affinity, expressed as Ki, was 111 nM. This Ki is about 1.8-fold lower than that of the compound before. As to `Cc1c(C(=O)NCCN2CCN(C)CC2)cc(-c2ccc3ccccc3c2)n1-c1ccc(S(N)(=O)=O)cc1`, the Ki is 126 nM. On to `Cc1c(C(=O)NCCN(C)C)cc(-c2ccc3ccccc3c2)n1-c1ccc(S(N)(=O)=O)cc1`, for which affinity was put at a Ki of 10 nM. This Ki lies about 13-fold lower than the previous one.
